system: Pyricularia oryzae; test: microbe, parasite or virus in culture; format: cell-based; conditions: 168 h, read-out: control compared to the untreated check

Structure (SMILES)	inhibition of growth at 300 ppm [%]
CS(=O)(=NCc1ccc(-c2noc(C(F)(F)F)n2)cc1)c1ccccc1F (centres unmarked) [Compound 29, (2-fluorophenyl)(methyl)((4-(5-(trifluoromethyl)-1,2,4-oxadiazol-3-yl)benzyl)imino)-λ^6-sulfanone]	> 70
CS(=O)(=Nc1ccc(-c2noc(C(F)(F)F)n2)cc1)c1ccc(F)c(F)c1 (centres unmarked) [Compound 97, (3,4-difluorophenyl)(methyl)((4-(5-(trifluoromethyl)-1,2,4-oxadiazol-3-yl)phenyl)imino)-λ^6-sulfanone]	> 70

system: Phakopsora pachyrhizi; test: Phakopsora pachyrhizi test in soybean, preventive spray; format: in vivo; conditions: preventive spray on soybean plants, inoculated one day after treatment, greenhouse 25° C., 90% relative humidity, read-out: control (efficacy, disease severity rating) compared to the untreated check
Experimental: Example 8: Phakopsora pachyrhizi Test in Soybean
Compounds were dissolved in 2% DMSO/Acetone & then mixed with water to the calibrated spray volume of 50 mL and poured into the spray bottles for further applications.
To test the preventive activity of compounds, healthy young soybean plants raised in the greenhouse were sprayed with active compound preparation at the stated application rates inside the spray cabinets using hallowcone nozzles. One day after treatment, the plants were inoculated with spore suspension containing 2.1×10^6 Phakopsora pachyrhizi inoculum. The inoculated plants were then kept in greenhouse chamber at 25° C. temperature & 90% relative humidity for disease expression.
A visual assessment of compound's performance was carried out by rating the disease severity (0-100% scale) on treated plants on 3, 7, 10 & 15 days after application. Efficacy (% control) of the compounds was calculated by comparing the disease rating in the treatment with the one of the untreated control. The sprayed plants were also assessed for compound's plant compatibility by recording symptoms like necrosis, chlorosis & stunting.

Structure (SMILES)	pest or weed control at 500 ppm [%]
CS(=O)(=NC(=O)c1ccc(-c2noc(C(F)(F)F)n2)cc1)c1ccc(Cl)cc1 (centres unmarked) [Compound 1, N-((4-chlorophenyl)(methyl)(oxo)-λ^6-sulfanylidene)-4-(5-(trifluoromethyl)-1,2,4-oxadiazol-3-yl)benzamide]	> 90
CS(=O)(=NC(=O)c1ccc(-c2noc(C(F)(F)F)n2)cc1)c1ccccn1 (centres unmarked) [Compound 2, N-(methyl(oxo)(pyridin-2-yl)-λ^6-sulfanylidene)-4-(5-(trifluoromethyl)-1,2,4-oxadiazol-3-yl)benzamide]	> 90
CS(=O)(=NC(=O)c1ccc(-c2noc(C(F)(F)F)n2)cc1)c1ccncc1 (centres unmarked) [Compound 4, N-(methyl(oxo)(pyridin-4-yl)-λ^6-sulfanylidene)-4-(5-(trifluoromethyl)-1,2,4-oxadiazol-3-yl)benzamide]	> 90
CS(=O)(=NC(=O)c1ccc(-c2noc(C(F)(F)F)n2)cc1)c1cccc(F)c1 (centres unmarked) [Compound 5, N-((3-fluorophenyl)(methyl)(oxo)-λ^6-sulfanylidene)-4-(5-(trifluoromethyl)-1,2,4-oxadiazol-3-yl)benzamide]	> 90
CS(=O)(=NC(=O)c1ccc(-c2noc(C(F)(F)F)n2)cc1)c1ccc(F)cc1 (centres unmarked) [Compound 6, N-((4-fluorophenyl)(methyl)(oxo)-λ^6-sulfanylidene)-4-(5-(trifluoromethyl)-1,2,4-oxadiazol-3-yl)benzamide]	> 90
CS(=O)(=NC(=O)c1ccc(-c2noc(C(F)(F)F)n2)cc1)c1ccc(C(F)(F)F)cc1 (centres unmarked) [Compound 7, N-(methyl(oxo)(4-(trifluoromethyl)phenyl)-λ^6-sulfanylidene)-4-(5-(trifluoromethyl)-1,2,4-oxadiazol-3-yl)benzamide]	> 90
CS(=O)(=NC(=O)c1ccc(-c2noc(C(F)(F)F)n2)cc1)c1ccccc1 (centres unmarked) [Compound 9, N-(methyl(oxo)(phenyl)-λ^6-sulfanylidene)-4-(5-(trifluoromethyl)-1,2,4-oxadiazol-3-yl)benzamide]	> 90
COc1ccc(S(C)(=O)=NC(=O)c2ccc(-c3noc(C(F)(F)F)n3)cc2)cc1 (centres unmarked) [Compound 10, N-((4-methoxyphenyl)(methyl)(oxo)-λ^6-sulfanylidene)-4-(5-(trifluoromethyl)-1,2,4-oxadiazol-3-yl)benzamide]	> 90
CS(=O)(=Nc1ccc(-c2noc(C(F)(F)F)n2)cc1)c1ccccc1F (centres unmarked) [Compound 12, (2-fluorophenyl)(methyl)((4-(5-(trifluoromethyl)-1,2,4-oxadiazol-3-yl)phenyl)imino)-λ^6-sulfanone]	> 90
CS(=O)(=Nc1ccc(-c2noc(C(F)(F)F)n2)cc1)c1ccc(OC(F)(F)F)cc1 (centres unmarked) [Compound 21, methyl(4-(trifluoromethoxy)phenyl)((4-(5-(trifluoromethyl)-1,2,4-oxadiazol-3-yl)phenyl)imino)-λ^6-sulfanone]	> 90
CS(=O)(=NCc1ccc(-c2noc(C(F)(F)F)n2)cc1)c1ccc(C(F)(F)F)cc1 (centres unmarked) [Compound 25, methyl((4-(5-(trifluoromethyl)-1,2,4-oxadiazol-3-yl)benzyl)imino)(4-(trifluoromethyl)phenyl)-λ^6-sulfanone]	> 90
CS(=O)(=NCc1ccc(-c2noc(C(F)(F)F)n2)cc1)c1ccccc1 (centres unmarked) [Compound 26, methyl(phenyl)((4-(5-(trifluoromethyl)-1,2,4-oxadiazol-3-yl)benzyl)imino)-λ^6-sulfanone]	> 90
CS(=O)(=NCc1ccc(-c2noc(C(F)(F)F)n2)cc1)c1ccc(Cl)cc1 (centres unmarked) [Compound 28, (4-chlorophenyl)(methyl)((4-(5-(trifluoromethyl)-1,2,4-oxadiazol-3-yl)benzyl)imino)-λ^6-sulfanone]	> 90
Cc1ccc(S(C)(=O)=NC(=O)c2ccc(-c3noc(C(F)(F)F)n3)cc2)cc1 (centres unmarked) [Compound 30, N-(methyl(oxo)(p-tolyl)-λ^6-sulfaneylidene)-4-(5-(trifluoromethyl)-1,2,4-oxadiazol-3-yl)benzamide]	> 90
CS(=O)(Cc1ccc(C#N)cc1)=NC(=O)c1ccc(-c2noc(C(F)(F)F)n2)cc1 (centres unmarked) [Compound 31, N-((4-cyanobenzyl)(methyl)(oxo)-λ^6-sulfaneylidene)-4-(5-(trifluoromethyl)-1,2,4-oxadiazol-3-yl)benzamide]	> 90
CS(=O)(=NC(=O)c1ccc(-c2noc(C(F)(F)F)n2)cc1)c1c(F)cccc1F (centres unmarked) [Compound 36, N-((2,6-difluorophenyl)(methyl)(oxo)-λ^6-sulfaneylidene)-4-(5-(trifluoromethyl)-1,2,4-oxadiazol-3-yl)benzamide]	> 90
CS(=O)(Cc1ccccc1F)=NC(=O)c1ccc(-c2noc(C(F)(F)F)n2)cc1 (centres unmarked) [Compound 38, N-((2-fluorobenzyl)(methyl)(oxo)-λ^6-sulfaneylidene)-4-(5-(trifluoromethyl)-1,2,4-oxadiazol-3-yl)benzamide]	> 90
Cc1ccccc1CS(C)(=O)=NC(=O)c1ccc(-c2noc(C(F)(F)F)n2)cc1 (centres unmarked) [Compound 40, N-(methyl(2-methylbenzyl)(oxo)-λ^6-sulfaneylidene)-4-(5-(trifluoromethyl)-1,2,4-oxadiazol-3-yl)benzamide]	> 90
CS(=O)(=NC(=O)c1ccc(-c2noc(C(F)(F)F)n2)cc1)c1ccc(C#N)cc1 (centres unmarked) [Compound 42, N-((4-cyanophenyl)(methyl)(oxo)-λ^6-sulfaneylidene)-4-(5-(trifluoromethyl)-1,2,4-oxadiazol-3-yl)benzamide]	> 90
CS(=O)(Cc1ccc(C(F)(F)F)cc1)=NC(=O)c1ccc(-c2noc(C(F)(F)F)n2)cc1 (centres unmarked) [Compound 50, N-(methyl(oxo)(4-(trifluoromethyl)benzyl)-λ^6-sulfaneylidene)-4-(5-(trifluoromethyl)-1,2,4-oxadiazol-3-yl)benzamide]	> 90
CS(=O)(Cc1c(Cl)cccc1Cl)=NC(=O)c1ccc(-c2noc(C(F)(F)F)n2)cc1 (centres unmarked) [Compound 51, N-((2,6-dichlorobenzyl)(methyl)(oxo)-λ^6-sulfaneylidene)-4-(5-(trifluoromethyl)-1,2,4-oxadiazol-3-yl)benzamide]	> 90
Cc1csc(S(C)(=O)=NC(=O)c2ccc(-c3noc(C(F)(F)F)n3)cc2)n1 (centres unmarked) [Compound 53, N-(methyl(4-methylthiazol-2-yl)(oxo)-λ^6-sulfaneylidene)-4-(5-(trifluoromethyl)-1,2,4-oxadiazol-3-yl)benzamide]	> 90
Cc1nnc(S(C)(=O)=NC(=O)c2ccc(-c3noc(C(F)(F)F)n3)cc2)s1 (centres unmarked) [Compound 54, N-(methyl(5-methyl-1,3,4-thiadiazol-2-yl)(oxo)-λ^6-sulfaneylidene)-4-(5-(trifluoromethyl)-1,2,4-oxadiazol-3-yl)benzamide]	> 90
CS(=O)(=NC(=O)c1ccc(-c2noc(C(F)(F)F)n2)cc1)c1ccc(F)c(F)c1 (centres unmarked) [Compound 57, N-((3,4-difluorophenyl)(methyl)(oxo)-λ^6-sulfaneylidene)-4-(5-(trifluoromethyl)-1,2,4-oxadiazol-3-yl)benzamide]	> 90
O=C(N=S1(=O)CCOCC1)c1ccc(-c2noc(C(F)(F)F)n2)cc1 [Compound 58, N-(4-oxido-1,4λ^6-oxathian-4-ylidene)-4-(5-(trifluoromethyl)-1,2,4-oxadiazol-3-yl)benzamide]	> 90
CS(=O)(Cc1c(F)cccc1F)=Nc1ccc(-c2noc(C(F)(F)F)n2)cc1 (centres unmarked) [Compound 85, (2,6-difluorobenzyl)(methyl)((4-(5-(trifluoromethyl)-1,2,4-oxadiazol-3-yl)phenyl)imino)-λ^6-sulfanone]	> 90
CS(=O)(Cc1ccc(F)cc1)=Nc1ccc(-c2noc(C(F)(F)F)n2)cc1 (centres unmarked) [Compound 89, (4-fluorobenzyl)(methyl)((4-(5-(trifluoromethyl)-1,2,4-oxadiazol-3-yl)phenyl)imino)-λ^6-sulfanone]	> 90
CS(=O)(Cc1c(Cl)cccc1Cl)=Nc1ccc(-c2noc(C(F)(F)F)n2)cc1 (centres unmarked) [Compound 91, (2,6-dichlorobenzyl)(methyl)((4-(5-(trifluoromethyl)-1,2,4-oxadiazol-3-yl)phenyl)imino)-λ^6-sulfanone]	> 90
CS(=O)(Cc1ccc(Br)cc1)=Nc1ccc(-c2noc(C(F)(F)F)n2)cc1 (centres unmarked) [Compound 92, (4-bromobenzyl)(methyl)((4-(5-(trifluoromethyl)-1,2,4-oxadiazol-3-yl)phenyl)imino)-λ^6-sulfanone]	> 90
CS(=O)(=Nc1ccc(-c2noc(C(F)(F)F)n2)nc1)c1ccccn1 (centres unmarked) [Compound 110, methyl(pyridin-2-yl)((6-(5-(trifluoromethyl)-1,2,4-oxadiazol-3-yl)pyridin-3-yl)imino)-λ^6-sulfanone]	> 90

— patent publication US11286242B2 (priority 2018, dated 2022)
